# Test results from ChEMBL document CHEMBL3881525, “Analogs of dehydrophenylahistins and their therapeutic use” (2007).
# Active and inactive are the calls of the source. The rule behind the calls is not given here.
# Experiments:
# [1] = Cytotoxicity against human PC3 cells assessed as reduction in cell viability measured after 48 hrs by resazurin dye-based fluorometric analysis; assay type: functional; conditions: PC-3, 48 h
# [2] = Drug metabolism assessed as human hepatic cytochrome P450-mediated hydroxylated metabolite P3 and P5 formation; assay type: ADME
# [3] = Cytotoxicity against human MDA-MB-231 cells assessed as reduction in cell viability measured after 48 hrs by resazurin dye-based fluorometric analysis; assay type: functional; conditions: MDA-MB-231, 48 h
# [4] = Cytotoxicity against human OVCAR3 cells assessed as reduction in cell viability measured after 48 hrs by resazurin dye-based fluorometric analysis; assay type: functional; conditions: OVCAR-3, 48 h
# [5] = Cytotoxicity against human CCD-27Sk cells assessed as reduction in cell viability measured after 48 hrs by resazurin dye-based fluorometric analysis
# [6] = Antiproliferative activity against human mitoxantrone-resistant HL60/MX2 cells; assay type: functional, cell-based; conditions: HL-60
# Tubulin (Homo sapiens) [7] = biological target: T1, Tubulin (Homo sapiens) (UniProt P68371+Q9H4B7+P0DPH7+P68366+Q13509+Q71U36+P04350+Q3ZCM7+P07437+P68363+Q9BQE3+Q6PEY2+Q13885+Q9BVA1+Q9BUF5); experiment: Induction of microtubule depolymerization in HUVEC at 2 uM measured after 30 mins; assay type: cell-based
# Tubulin (Homo sapiens) [8] = biological target: T1, Tubulin (Homo sapiens); experiment: Induction of microtubule depolymerization in HUVEC assessed as cell membrane blebbing at 2 uM measured after 30 mins; assay type: cell-based
# Tubulin (Homo sapiens) [9] = biological target: T1, Tubulin (Homo sapiens); experiment: Induction of microtubule depolymerization in human CCD-27Sk cells assessed as cell membrane blebbing at 2 uM measured after 30 mins; assay type: cell-based
# [10] = Antitumor activity against human HT-29 cells xenografted in nude mouse assessed as tumor growth inhibition at 7.5 mg/kg, ip administered every third day for 5 days relative to control; assay type: functional; conditions: HT-29, ip, 120 h, read-out: TGI
# [11] = Antitumor activity against human HT-29 cells xenografted in nude mouse assessed as tumor growth inhibition at 10 mg/kg, ip administered every third day for 5 days in presence of CPT-11 relative to control; assay type: functional; conditions: HT-29, ip, 120 h, read-out: TGI
# [12] = Antitumor activity against human DU145 cells xenografted in nude mouse assessed as tumor growth inhibition at 7.5 mg/kg, iv administered every third day for 5 days measured on day 28 relative to control; assay type: functional; conditions: DU-145, iv, read-out: TGI
# [13] = Antifungal activity against Candida glabrata measured after 48 hrs by broth dilution method; assay type: functional; conditions: Nakaseomyces glabratus
# [14] = Antifungal activity against Trichophyton rubrum isolate 1 measured after 48 hrs by broth dilution method; assay type: functional
# [15] = Antifungal activity against Trichophyton rubrum isolate 2 measured after 48 hrs by broth dilution method; assay type: functional
# [16] = Antifungal activity against Trichophyton mentagrophytes isolate 1 measured after 48 hrs by broth dilution method; assay type: functional
# [17] = Antifungal activity against Trichophyton mentagrophytes isolate 2 measured after 48 hrs by broth dilution method; assay type: functional
# Mus musculus = experiment: Antivascular activity against mouse N202 tumor spheroids expressing H2B-GFP allografted in mouse assessed as inhibition of tumor-induced central vasculature at 10 mg/kg, iv administered on day 13 as infusion for 5 mins measured on day 15 by fluorescence video microscopy; assay type: functional, organism-based
# [18] = Toxicity in mouse allografted with mouse N202 tumor spheroids expressing H2B-GFP assessed as effect on tumor surrounding vasculature in the dorsal skin fold at 10 mg/kg, iv administered on day 13 as infusion for 5 mins measured on day 15; assay type: organism-based; conditions: in vivo
# Rattus norvegicus [19] = experiment: Effect on blood flow in rat muscle at 15 mg/kg, ip measured after 1 hr by [125I]iodoantipyrine based method relative to vehicle control; assay type: ADME, organism-based; conditions: in vivo
# Rattus norvegicus [20] = experiment: Effect on blood flow in rat spleen at 15 mg/kg, ip measured after 1 hr by [125I]iodoantipyrine based method relative to vehicle control; assay type: ADME, organism-based; conditions: in vivo
# Rattus norvegicus [21] = experiment: Reduction in blood flow in rat brain at 15 mg/kg, ip measured after 24 hrs by [125I]iodoantipyrine based method relative to vehicle control; assay type: ADME, organism-based; conditions: in vivo
# Rattus norvegicus [22] = experiment: Reduction in blood flow in rat heart at 15 mg/kg, ip measured after 24 hrs by [125I]iodoantipyrine based method relative to vehicle control; assay type: ADME, organism-based; conditions: in vivo
# Rattus norvegicus [23] = experiment: Reduction in blood flow in rat spleen at 15 mg/kg, ip measured after 24 hrs by [125I]iodoantipyrine based method relative to vehicle control; assay type: ADME, organism-based; conditions: in vivo
# Rattus norvegicus [24] = experiment: Reduction in blood flow in rat gut at 15 mg/kg, ip measured after 24 hrs by [125I]iodoantipyrine based method relative to vehicle control; assay type: ADME, organism-based; conditions: in vivo
# Rattus norvegicus [25] = experiment: Increase in blood flow in rat skeletal muscle at 15 mg/kg, ip measured after 24 hrs by [125I]iodoantipyrine based method relative to vehicle control; assay type: ADME, organism-based; conditions: in vivo
# MCF7 [26] = experiment: Antimitotic activity in human MCF7 cells assessed as bipolar cells with uncompressed chromosomes at mitotic block IC50 measured after 20 hrs by immunofluorescence analysis relative to control; assay type: functional
# MCF7 [27] = experiment: Antimitotic activity in human MCF7 cells assessed as decrease in microtubule polymer formation measured after 20 hrs by immunofluorescence analysis relative to control; assay type: functional, cell-based
# Tubulin (Homo sapiens) [28] = biological target: T1, Tubulin (Homo sapiens); experiment: Induction of microtubule instability in human MCF7 cells assessed as mean growth rate at IC25 for mitotic block measured after 20 hrs by immunofluorescence analysis; assay type: cell-based
# Tubulin (Homo sapiens) [29] = biological target: T1, Tubulin (Homo sapiens); experiment: Induction of microtubule instability in human MCF7 cells assessed as mean shortening rate at IC25 for mitotic block measured after 20 hrs by immunofluorescence analysis; assay type: cell-based
# Tubulin (Homo sapiens) [30] = biological target: T1, Tubulin (Homo sapiens); experiment: Induction of microtubule instability in human MCF7 cells assessed as time spent for growth at IC25 for mitotic block measured after 20 hrs by immunofluorescence analysis; assay type: cell-based
# Tubulin (Homo sapiens) [31] = biological target: T1, Tubulin (Homo sapiens); experiment: Induction of microtubule instability in human MCF7 cells assessed as mean shortening rate at IC50 for mitotic block measured after 20 hrs by immunofluorescence analysis; assay type: cell-based
# Tubulin (Homo sapiens) [32] = biological target: T1, Tubulin (Homo sapiens); experiment: Induction of microtubule instability in human MCF7 cells assessed as time spent for growth at IC50 for mitotic block measured after 20 hrs by immunofluorescence analysis; assay type: cell-based
# Tubulin (Homo sapiens) [33] = biological target: T1, Tubulin (Homo sapiens); experiment: Induction of microtubule instability in human MCF7 cells assessed as rescue frequency at IC50 for mitotic block measured after 20 hrs by immunofluorescence analysis; assay type: cell-based
# Tubulin (Homo sapiens) [34] = biological target: T1, Tubulin (Homo sapiens); experiment: Induction of microtubule dynamic instability in human MCF7 cells at IC50 for mitotic block measured after 20 hrs by immunofluorescence analysis; assay type: cell-based
# Tubulin (Homo sapiens) [35] = biological target: T1, Tubulin (Homo sapiens); experiment: Time required for induction of microtubule dynamic instability in human MCF7 cells at IC50 for mitotic block measured after 20 hrs by immunofluorescence analysis; assay type: cell-based
# Tubulin (Homo sapiens) [36] = biological target: T1, Tubulin (Homo sapiens); experiment: Induction of microtubule dynamic instability in human MCF7 cells at IC25 for mitotic block measured after 20 hrs by immunofluorescence analysis; assay type: cell-based
# [37] = biological target: RAF proto-oncogene serine/threonine-protein kinase (Homo sapiens) (UniProt P04049); conditions: 10 uM
# Chain of RAF proto-oncogene serine/threonine-protein kinase (Homo sapiens) (P04049 whole entry): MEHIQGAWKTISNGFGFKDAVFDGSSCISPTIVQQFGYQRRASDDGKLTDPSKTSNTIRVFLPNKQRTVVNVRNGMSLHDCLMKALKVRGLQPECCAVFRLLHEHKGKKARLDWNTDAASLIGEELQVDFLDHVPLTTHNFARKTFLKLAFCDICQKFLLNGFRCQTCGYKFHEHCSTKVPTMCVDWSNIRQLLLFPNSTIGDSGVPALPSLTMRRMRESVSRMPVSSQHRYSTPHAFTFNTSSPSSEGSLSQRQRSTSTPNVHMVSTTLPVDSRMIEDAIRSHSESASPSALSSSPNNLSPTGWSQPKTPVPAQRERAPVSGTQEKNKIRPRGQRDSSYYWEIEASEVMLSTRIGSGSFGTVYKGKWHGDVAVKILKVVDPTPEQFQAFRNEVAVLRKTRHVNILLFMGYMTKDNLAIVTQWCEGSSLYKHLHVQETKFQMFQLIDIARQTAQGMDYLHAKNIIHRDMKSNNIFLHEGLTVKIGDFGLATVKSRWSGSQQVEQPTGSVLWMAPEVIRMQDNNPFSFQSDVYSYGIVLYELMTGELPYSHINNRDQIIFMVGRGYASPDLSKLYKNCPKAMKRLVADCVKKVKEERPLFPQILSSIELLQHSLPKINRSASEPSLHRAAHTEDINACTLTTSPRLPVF
# Description: Inhibition of human c-RAF at 10 uM in presence of ATP
# [38] = biological target: Tyrosine-protein kinase Lyn (Mus musculus) (UniProt P25911); conditions: 10 uM
# Chain of Tyrosine-protein kinase Lyn (Mus musculus) (P25911 whole entry): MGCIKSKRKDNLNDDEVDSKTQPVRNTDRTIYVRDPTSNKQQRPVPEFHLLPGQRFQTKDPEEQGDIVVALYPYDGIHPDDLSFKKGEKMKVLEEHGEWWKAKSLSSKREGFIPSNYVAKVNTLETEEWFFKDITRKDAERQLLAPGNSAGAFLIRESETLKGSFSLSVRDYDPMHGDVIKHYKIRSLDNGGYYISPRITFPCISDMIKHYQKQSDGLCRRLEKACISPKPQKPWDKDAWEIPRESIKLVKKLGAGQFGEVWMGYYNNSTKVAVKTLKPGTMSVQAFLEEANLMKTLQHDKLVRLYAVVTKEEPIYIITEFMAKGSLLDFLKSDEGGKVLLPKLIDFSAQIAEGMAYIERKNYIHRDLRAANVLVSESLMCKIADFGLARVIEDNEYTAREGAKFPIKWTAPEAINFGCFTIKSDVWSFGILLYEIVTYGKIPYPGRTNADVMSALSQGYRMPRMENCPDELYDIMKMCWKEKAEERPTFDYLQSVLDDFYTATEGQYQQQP
# Description: Inhibition of mouse Lyn at 10 uM in presence of ATP
# Tubulin (Bos taurus) [39] = biological target: T2, Tubulin (Bos taurus) (UniProt Q6B856+Q862L2+Q862F3); conditions: 1.25 to 5 uM
# Tubulin (Bos taurus) [40] = biological target: T2, Tubulin (Bos taurus); conditions: 10 uM
# Description: Inhibition of [3H]CLC binding to bovine brain tubulin at 10 uM measured after 120 mins in presence of GTP by scintillation counting method
compound,measurement,setting,value
CC(C)(C)c1[nH]cnc1/C=c1\[nH]c(=O)/c(=C/c2ccccc2)[nH]c1=O [PLINABULIN],EC50,[1],1 to 13.4 nM
same,Drug metabolism,[2],Metabolite_Detected
same,EC50,[3],13.8 nM
same,EC50,[4],> 20000 nM
same,EC50,[5],9.2 nM
same,EC50,[6],8.17 nM
same,Activity,Tubulin (Homo sapiens) [7],Active
same,Activity,Tubulin (Homo sapiens) [8],Active
same,Activity,Tubulin (Homo sapiens) [9],Active
same,inhibition in vivo at 7.5 mg/kg,[10],9%
same,inhibition in vivo at 10 mg/kg,[11],65.8 to 83.3%
same,inhibition in vivo at 7.5 mg/kg,[12],92.5%
same,MIC,[13],> 32 mg/L
same,MIC,[14],> 16 mg/L
same,MIC,[15],< 0.03 mg/L
same,MIC,[16],2 mg/L
same,MIC,[17],> 16 mg/L
same,inhibition,Mus musculus,Active
same,Activity,[18],Non-Toxic
same,Activity,Rattus norvegicus [19],Non-Toxic
same,Activity,Rattus norvegicus [20],Non-Toxic
same,Activity,Rattus norvegicus [21],Toxic
same,Activity,Rattus norvegicus [22],Toxic
same,Activity,Rattus norvegicus [23],Toxic
same,Activity,Rattus norvegicus [24],Toxic
same,Activity,Rattus norvegicus [25],Toxic
same,Activity,MCF7 [26],Active
same,Activity,MCF7 [27],Dose-dependent effect
same,Activity,Tubulin (Homo sapiens) [28],11.9 um/min
same,Activity,Tubulin (Homo sapiens) [29],31.9 um/min
same,Activity,Tubulin (Homo sapiens) [30],29.7%
same,TIME,Tubulin (Homo sapiens) [30],0.00517 h
same,Activity,Tubulin (Homo sapiens) [31],34.1 um/min
same,Activity,Tubulin (Homo sapiens) [32],33%
same,TIME,Tubulin (Homo sapiens) [32],0.005 h
same,Activity,Tubulin (Homo sapiens) [33],2.6 min⁻¹
same,Activity,Tubulin (Homo sapiens) [34],10.6 um/min
same,TIME,Tubulin (Homo sapiens) [35],0.552 h
same,Activity,Tubulin (Homo sapiens) [36],10.1 um/min
same,inhibition,[37],> 50%
same,inhibition,[38],> 50%
same,inhibition,Tubulin (Bos taurus) [39],Active
same,inhibition,Tubulin (Bos taurus) [40],Active
